# Measurements from US11725037B2, “Peptide dual agonists of GIPR and GLP2R” (University of Copenhagen, priority 2017, dated 2023).
# pEC50: −log10 of the molar value. Where two headings read alike, the source gives them in different places. Ends that are not written are not given here. Peptide text beside a SMILES is read from it. * marks the point of attachment. Palmitoyl = CCCCCCCCCCCCCCCC(=O)*
# Columns and labels:
# human GIP receptor = target: T1, human GIP receptor (Homo sapiens, UniProt P48546); experiment: cAMP accumulation assay (HitHunter cAMP XS) in transiently transfected COS-7 cells expressing the human GIP receptor; format: cell-based; details: for Emax at 10 µM: COS-7, read-out: Emax (10 μM), GIP receptor; for fold (fold change of native GIP), GIP receptor: EC50 relative to native GIP
# T1 construct: host or cells: COS-7 (transient, calcium phosphate; pCMV-Script vector)
# T1 sequence (P48546 22-466): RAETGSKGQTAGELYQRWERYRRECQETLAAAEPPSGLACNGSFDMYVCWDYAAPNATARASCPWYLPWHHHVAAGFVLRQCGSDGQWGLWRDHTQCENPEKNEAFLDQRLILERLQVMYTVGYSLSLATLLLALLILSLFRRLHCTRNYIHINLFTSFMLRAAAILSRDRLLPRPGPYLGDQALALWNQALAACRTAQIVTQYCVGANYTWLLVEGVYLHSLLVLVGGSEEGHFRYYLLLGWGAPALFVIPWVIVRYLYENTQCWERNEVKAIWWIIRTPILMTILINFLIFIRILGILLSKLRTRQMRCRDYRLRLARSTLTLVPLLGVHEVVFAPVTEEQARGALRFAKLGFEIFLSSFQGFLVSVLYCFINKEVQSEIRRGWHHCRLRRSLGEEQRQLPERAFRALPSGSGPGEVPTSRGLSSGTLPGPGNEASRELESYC
# Protocol: (§1) The day after, the cells were washed twice with Hepes buffered saline (HBS) buffer and incubated with HBS and 1 mM 3-isobutyl-1-methylxanthine (IBMX) for 30 min at 37° C. Ligands were added and incubated for 30 min at 37° C. The HitHunter™ cAMP XS assay (DiscoveRx) was carried out according to the manufacturer's instructions.
# human GLP-2 receptor = target: T2, human GLP-2 receptor (Homo sapiens, UniProt O95838); experiment: cAMP accumulation assay (HitHunter cAMP XS) in transiently transfected COS-7 cells expressing the human GLP-2 receptor; format: cell-based; details: for Emax at 10 µM: COS-7, read-out: Emax (10 μM), GLP-2 receptor; for fold (fold change of native GLP-2), GLP-2 receptor: EC50 relative to native GLP-2; for pEC50: logEC50, GLP-2 receptor
# T2 construct: host or cells: COS-7 (transient, calcium phosphate; pCMV-Script vector)
# T2 sequence (O95838 1-553): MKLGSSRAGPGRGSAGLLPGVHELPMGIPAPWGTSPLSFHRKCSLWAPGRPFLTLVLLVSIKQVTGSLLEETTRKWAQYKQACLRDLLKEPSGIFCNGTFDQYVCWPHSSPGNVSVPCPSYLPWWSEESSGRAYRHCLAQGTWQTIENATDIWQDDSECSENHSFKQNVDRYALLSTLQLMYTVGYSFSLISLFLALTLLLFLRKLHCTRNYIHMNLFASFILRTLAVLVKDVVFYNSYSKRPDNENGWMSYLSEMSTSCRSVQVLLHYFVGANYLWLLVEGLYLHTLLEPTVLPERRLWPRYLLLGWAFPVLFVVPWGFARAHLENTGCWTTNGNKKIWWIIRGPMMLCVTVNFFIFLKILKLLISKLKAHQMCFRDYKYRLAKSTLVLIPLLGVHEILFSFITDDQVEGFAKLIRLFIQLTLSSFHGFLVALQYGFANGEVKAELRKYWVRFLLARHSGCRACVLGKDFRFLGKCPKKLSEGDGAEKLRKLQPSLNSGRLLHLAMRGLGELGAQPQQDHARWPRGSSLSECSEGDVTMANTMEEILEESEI
# Protocol: as §1
# [1] = logEC50, GIP receptor, Table 2, log value, cAMP, COS-7
# [2] = logEC50, GIP receptor, Table 1, log value, cAMP, COS-7
Emax at 10 µM (human GIP receptor) [%],pEC50 (human GIP receptor; [1]),Emax at 10 µM (human GLP-2 receptor) [%],"fold (fold change of native GIP), GIP receptor (human GIP receptor; Table 1) [fold]","fold (fold change of native GLP-2), GLP-2 receptor (human GLP-2 receptor; Table 1) [fold]",Compound,also measured
100,9.50,82,–,–,CCCCCCCCCCCCCCCC(=O)NCCCC[C@H](NC(=O)[C@@H](NC(=O)[C@@H](NC(=O)[C@H](CCCCN)NC(=O)[C@@H](NC(=O)[C@H](CCC(N)=O)NC(=O)[C@@H](NC(=O)[C@H](CC(C)C)NC(=O)[C@H](Cc1c[nH]c2ccccc12)NC(=O)[C@H](CC(N)=O)NC(=O)[C@@H](NC(=O)[C@H](Cc1ccccc1)NC(=O)[C@H](CC(=O)O)NC(=O)[C@H](CCCNC(=N)N)NC(=O)[C@H](C)NC(=O)[C@H](C)NC(=O)[C@H](CC(C)C)NC(=O)[C@H](CC(N)=O)NC(=O)[C@H](CC(=O)O)NC(=O)[C@H](CC(C)C)NC(=O)[C@@H](NC(=O)[C@@H](NC(=O)[C@H](CO)NC(=O)[C@H](Cc1ccc(O)cc1)NC(=O)[C@H](CC(=O)O)NC(=O)[C@H](CO)NC(=O)[C@@H](NC(=O)[C@H](Cc1ccccc1)NC(=O)[C@@H](NC(=O)CNC(=O)[C@H](CC(=O)O)NC(=O)[C@H](C)NC(=O)[C@@H](N)Cc1c[nH]cn1)[C@@H](C)O)[C@@H](C)CC)[C@@H](C)O)[C@@H](C)CC)[C@@H](C)CC)[C@@H](C)CC)[C@@H](C)O)[C@@H](C)CC)[C@@H](C)O)C(=O)O [Co-agonist 33],"fold (fold change of native GIP), GIP receptor (human GIP receptor; Table 2): 3.6 fold; fold (fold change of native GLP-2), GLP-2 receptor (human GLP-2 receptor; Table 2): 11 fold; pEC50 (human GLP-2 receptor; Table 2, cAMP, COS-7): 7.89"
75,–,91,5124,5.2,HAEGTFSDEYSTILDNLAARDFINWLIQTKITD [Co-agonist 5],"EC50 (human GLP-2 receptor; EC50(nM), GLP-2 receptor, Table 1, cAMP, COS-7): 6.2 nM"
100,10.52,100,–,–,HADGTFISDYSTILDKLAARDFINWLIQTKITK [Co-agonist 26],"fold (fold change of native GIP), GIP receptor (human GIP receptor; Table 2): 0.34 fold; fold (fold change of native GLP-2), GLP-2 receptor (human GLP-2 receptor; Table 2): 0.26 fold; pEC50 (human GLP-2 receptor; Table 2, cAMP, COS-7): 9.51"
100,9.39,72,–,–,CCCCCCCCCCCCCCCC(=O)N[C@@H](Cc1c[nH]cn1)C(=O)N[C@@H](C)C(=O)N[C@@H](CC(=O)O)C(=O)NCC(=O)N[C@H](C(=O)N[C@@H](Cc1ccccc1)C(=O)N[C@@H](CO)C(=O)N[C@@H](CO)C(=O)N[C@@H](CC(=O)O)C(=O)N[C@@H](Cc1ccc(O)cc1)C(=O)N[C@@H](CO)C(=O)N[C@H](C(=O)N[C@H](C(=O)N[C@@H](CC(C)C)C(=O)N[C@@H](CC(=O)O)C(=O)N[C@@H](CC(N)=O)C(=O)N[C@@H](CC(C)C)C(=O)N[C@@H](C)C(=O)N[C@@H](C)C(=O)N[C@@H](CCCNC(=N)N)C(=O)N[C@@H](CC(=O)O)C(=O)N[C@@H](Cc1ccccc1)C(=O)N[C@H](C(=O)N[C@@H](CC(N)=O)C(=O)N[C@@H](Cc1c[nH]c2ccccc12)C(=O)N[C@@H](CC(C)C)C(=O)N[C@H](C(=O)N[C@@H](CCC(N)=O)C(=O)N[C@H](C(=O)N[C@@H](CCCCN)C(=O)N[C@H](C(=O)N[C@H](C(=O)N[C@@H](CC(=O)O)C(=O)O)[C@@H](C)O)[C@@H](C)CC)[C@@H](C)O)[C@@H](C)CC)[C@@H](C)CC)[C@@H](C)CC)[C@@H](C)O)[C@@H](C)O [Co-agonist 22] (Palmitoyl-HADGTFSSDYSTILDNLAARDFINWLIQTKITD-OH),"pEC50 (human GLP-2 receptor; Table 2, cAMP, COS-7): 8.88"
100,–,94,–,–,HADGTFISDYSTILDNLAARDFINWLIQTKGKKNDWKHNITQ [Co-agonist 34],"pEC50 (human GLP-2 receptor; Table 2, cAMP, COS-7): 8.94"
94,–,90,27,9.2,HADGTFIDDYSTILDNLAARDFINWLIQTKITD [Co-agonist 14],"pEC50 (human GIP receptor; [2]): 8.63; pEC50 (human GLP-2 receptor; Table 1, cAMP, COS-7): 7.97"
96,–,81,12,21,HVDGTFISDYSTILDNLAARDFINWLIQTKITD [Co-agonist 12],"pEC50 (human GIP receptor; [2]): 8.96; pEC50 (human GLP-2 receptor; Table 1, cAMP, COS-7): 7.60"
100,9.70,112,–,–,CC[C@H](C)[C@H](NC(=O)[C@H](Cc1ccccc1)NC(=O)[C@H](CC(=O)O)NC(=O)[C@H](CCCCN)NC(=O)[C@H](C)NC(=O)[C@H](C)NC(=O)[C@H](CC(C)C)NC(=O)[C@H](CC(N)=O)NC(=O)[C@H](CC(=O)O)NC(=O)[C@H](CC(C)C)NC(=O)[C@@H](NC(=O)[C@@H](NC(=O)[C@H](CO)NC(=O)[C@H](Cc1ccc(O)cc1)NC(=O)[C@H](CC(=O)O)NC(=O)[C@H](CO)NC(=O)[C@@H](NC(=O)[C@H](Cc1ccccc1)NC(=O)[C@@H](NC(=O)CNC(=O)[C@H](CC(=O)O)NC(=O)[C@H](C)NC(=O)[C@@H](N)Cc1c[nH]cn1)[C@@H](C)O)[C@@H](C)CC)[C@@H](C)O)[C@@H](C)CC)C(=O)N[C@@H](CC(N)=O)C(=O)N[C@@H](Cc1c[nH]c2ccccc12)C(=O)N[C@@H](CC(C)C)C(=O)N[C@H](C(=O)N[C@@H](CCC(N)=O)C(=O)N[C@H](C(=O)N[C@@H](CCCCN)C(=O)N[C@H](C(=O)N[C@H](C(=O)N[C@@H](CCCCN)C(=O)O)[C@@H](C)O)[C@@H](C)CC)[C@@H](C)O)[C@@H](C)CC [Co-agonist 28],–
100,9.82,96,–,–,HADGTFISDYSKILDNLAARDFINWLIQTKITK [Co-agonist 24],"fold (fold change of native GIP), GIP receptor (human GIP receptor; Table 2): 1.7 fold; fold (fold change of native GLP-2), GLP-2 receptor (human GLP-2 receptor; Table 2): 0.62 fold"
94,7.47,75,–,–,CCCCCCCCCCCCCCCC(=O)NCCCC[C@H](NC(=O)[C@H](C)NC(=O)[C@H](C)NC(=O)[C@H](CC(C)C)NC(=O)[C@H](CC(N)=O)NC(=O)[C@H](CC(=O)O)NC(=O)[C@H](CC(C)C)NC(=O)[C@@H](NC(=O)[C@@H](NC(=O)[C@H](CO)NC(=O)[C@H](Cc1ccc(O)cc1)NC(=O)[C@H](CC(=O)O)NC(=O)[C@H](CO)NC(=O)[C@H](CO)NC(=O)[C@H](Cc1ccccc1)NC(=O)[C@@H](NC(=O)CNC(=O)[C@H](CC(=O)O)NC(=O)[C@H](C)NC(=O)[C@@H](N)Cc1c[nH]cn1)[C@@H](C)O)[C@@H](C)O)[C@@H](C)CC)C(=O)N[C@@H](CC(=O)O)C(=O)N[C@@H](Cc1ccccc1)C(=O)N[C@H](C(=O)N[C@@H](CC(N)=O)C(=O)N[C@@H](Cc1c[nH]c2ccccc12)C(=O)N[C@@H](CC(C)C)C(=O)N[C@H](C(=O)N[C@@H](CCC(N)=O)C(=O)N[C@H](C(=O)N[C@@H](CCCCN)C(=O)N[C@H](C(=O)N[C@H](C(=O)N[C@@H](CC(=O)O)C(=O)O)[C@@H](C)O)[C@@H](C)CC)[C@@H](C)O)[C@@H](C)CC)[C@@H](C)CC [Co-agonist 21] (H-HADGTFSSDYSTILDNLAAK(Palmitoyl)DFINWLIQTKITD-OH; N-terminus and C-terminus assumed),"fold (fold change of native GIP), GIP receptor (human GIP receptor; Table 2): 381 fold; fold (fold change of native GLP-2), GLP-2 receptor (human GLP-2 receptor; Table 2): 5.0 fold"
83,–,70,1933,50,HAEGTFISDMNTILDNLAARDFINWLIQTKITD [Co-agonist 6],–

Compound,Emax at 10 µM (human GIP receptor) [%],pEC50 (human GIP receptor; [1]),Emax at 10 µM (human GLP-2 receptor) [%],"fold (fold change of native GIP), GIP receptor (human GIP receptor; Table 1) [fold]","fold (fold change of native GLP-2), GLP-2 receptor (human GLP-2 receptor; Table 1) [fold]",also measured
HAEGTFISDYSTILDNLAARDFVNWLLAQKITD [Co-agonist 9],100,–,67,36,103,pEC50 (human GIP receptor): 8.50
HAEGTFISDYSIAMDKLAARDFINWLIQTKITD [Co-agonist 7],92,–,78,292,293,pEC50 (human GIP receptor): 7.59
HAEGTFISDYSTILDNLAARDFINWLIQTKITDNDWKHNITQ [Co-agonist 2],–,–,–,135,121,"pEC50 (human GIP receptor): 7.92; Emax at 1 µM (human GIP receptor; COS-7, read-out: Emax, GIP receptor): 100%; Emax at 1 µM (human GLP-2 receptor; COS-7, read-out: Emax, GLP-2 receptor): 93%"
